# Measured values: patent US20260217767A1, “NOVEL A4B7 THIOETHER PEPTIDE DIMER ANTAGONISTS” (Protagonist Therapeutics, Inc., priority 2014, published 2026)
# Where “and” joins values, the source holds several entries; their conditions need not be identical. Equal entries are not always repeated. *1 amine or outer side, *2 acyl side, *3 side chain or, on linkers, in order; H or OH if unused. Where a SMILES comes first, the peptide text is derived from it. Bridges are numbered along the chain shown (N, C = ends). Roman numbers before positions name the chains, in order. [ ]: non-standard residue; d: D form. Bip = N[C@@H](Cc1ccc(-c2ccccc2)cc1)C(=O)O; 1Nal = N[C@@H](Cc1cccc2ccccc12)C(=O)O; Diglycolyl = O=C(COCC(=O)[*:2])[*:1]; NMeR = CN[C@@H](CCCNC(=N)N)C(=O)O; Tic = O=C(O)[C@@H]1Cc2ccccc2CN1; X1 = O=C(c1ccccc1C[*:2])[*:1]; Pen = CC(C)(S)[C@H](N)C(=O)O
# Key:
# [1] = target: T1, α4β1 (Homo sapiens, UniProt P05556+P13612); test: α4β1-VCAM Competition ELISA; format: binding; conditions: thioether peptide dimers, Table 7; read-out: ELISA A4B1
# T1 construct: purchased R&D Systems 5668-A4
# T1 sequence (P13612 34-977 limits assumed): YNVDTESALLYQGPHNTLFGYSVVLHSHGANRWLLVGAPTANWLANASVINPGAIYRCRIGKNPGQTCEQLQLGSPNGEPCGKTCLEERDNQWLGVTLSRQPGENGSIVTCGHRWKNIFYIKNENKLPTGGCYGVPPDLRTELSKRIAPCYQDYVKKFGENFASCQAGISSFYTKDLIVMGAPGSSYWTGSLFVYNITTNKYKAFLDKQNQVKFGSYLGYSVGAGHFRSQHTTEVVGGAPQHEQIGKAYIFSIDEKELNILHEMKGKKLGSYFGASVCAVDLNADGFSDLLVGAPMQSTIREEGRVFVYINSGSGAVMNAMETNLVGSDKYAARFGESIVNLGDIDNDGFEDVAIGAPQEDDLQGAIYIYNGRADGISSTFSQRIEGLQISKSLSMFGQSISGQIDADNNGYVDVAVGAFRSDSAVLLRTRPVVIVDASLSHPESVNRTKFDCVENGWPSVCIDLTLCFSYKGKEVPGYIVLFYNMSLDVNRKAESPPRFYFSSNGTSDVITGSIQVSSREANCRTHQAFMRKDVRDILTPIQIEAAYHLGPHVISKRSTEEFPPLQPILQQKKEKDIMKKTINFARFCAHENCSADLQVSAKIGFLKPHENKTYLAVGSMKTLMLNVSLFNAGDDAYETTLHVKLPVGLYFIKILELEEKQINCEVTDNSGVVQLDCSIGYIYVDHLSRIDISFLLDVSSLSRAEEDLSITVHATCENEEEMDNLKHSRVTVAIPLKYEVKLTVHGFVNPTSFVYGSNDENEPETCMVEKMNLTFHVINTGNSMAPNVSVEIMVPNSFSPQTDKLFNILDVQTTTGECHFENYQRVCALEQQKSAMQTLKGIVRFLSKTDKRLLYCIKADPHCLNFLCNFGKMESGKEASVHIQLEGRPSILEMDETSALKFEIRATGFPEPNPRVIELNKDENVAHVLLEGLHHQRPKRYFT
# T1 sequence (P05556 21-728 limits assumed): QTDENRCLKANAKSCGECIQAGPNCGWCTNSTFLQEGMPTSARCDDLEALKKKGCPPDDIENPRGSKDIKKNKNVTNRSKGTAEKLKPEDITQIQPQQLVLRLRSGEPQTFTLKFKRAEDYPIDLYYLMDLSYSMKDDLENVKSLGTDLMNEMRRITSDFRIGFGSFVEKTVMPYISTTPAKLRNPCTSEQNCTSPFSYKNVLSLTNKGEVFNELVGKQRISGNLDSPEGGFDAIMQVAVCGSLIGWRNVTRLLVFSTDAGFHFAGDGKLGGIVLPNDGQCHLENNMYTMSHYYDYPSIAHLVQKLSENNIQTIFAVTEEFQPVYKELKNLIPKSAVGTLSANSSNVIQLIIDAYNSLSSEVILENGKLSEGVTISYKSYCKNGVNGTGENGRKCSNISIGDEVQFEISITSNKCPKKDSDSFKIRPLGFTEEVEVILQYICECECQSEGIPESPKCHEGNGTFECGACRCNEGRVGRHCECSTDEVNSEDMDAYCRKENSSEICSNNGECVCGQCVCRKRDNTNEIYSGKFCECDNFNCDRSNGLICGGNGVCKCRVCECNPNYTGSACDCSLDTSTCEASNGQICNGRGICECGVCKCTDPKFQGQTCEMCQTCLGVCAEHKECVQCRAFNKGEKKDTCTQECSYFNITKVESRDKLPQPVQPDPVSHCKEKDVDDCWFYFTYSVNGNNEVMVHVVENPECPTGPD
# Method in brief: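 rh VCAM-1-Fc coated plates; α4β1 (final 60 nM) and peptide (final 100 μM) incubated 2 h at 37° C. in 50 mM Tris-HCl pH 7.6, 100 mM NaCl, 1 mM MnCl2 or MgCl2, 0.05% Tween-20. Bound integrin detected with anti-CD49d 9F10 and HRP anti-mouse IgG, TMB read at 450 nm.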
# [2] = target: Jurkat E6.1 cells (Homo sapiens, UniProt P05556+P13612); test: α4β1-VCAM Cell Adhesion Assay; format: cell-based; conditions: thioether peptide dimers, Table 7; read-out: Cell Adhesion A4B1
# Jurkat E6.1 cells, sequence (P13612 34-1032): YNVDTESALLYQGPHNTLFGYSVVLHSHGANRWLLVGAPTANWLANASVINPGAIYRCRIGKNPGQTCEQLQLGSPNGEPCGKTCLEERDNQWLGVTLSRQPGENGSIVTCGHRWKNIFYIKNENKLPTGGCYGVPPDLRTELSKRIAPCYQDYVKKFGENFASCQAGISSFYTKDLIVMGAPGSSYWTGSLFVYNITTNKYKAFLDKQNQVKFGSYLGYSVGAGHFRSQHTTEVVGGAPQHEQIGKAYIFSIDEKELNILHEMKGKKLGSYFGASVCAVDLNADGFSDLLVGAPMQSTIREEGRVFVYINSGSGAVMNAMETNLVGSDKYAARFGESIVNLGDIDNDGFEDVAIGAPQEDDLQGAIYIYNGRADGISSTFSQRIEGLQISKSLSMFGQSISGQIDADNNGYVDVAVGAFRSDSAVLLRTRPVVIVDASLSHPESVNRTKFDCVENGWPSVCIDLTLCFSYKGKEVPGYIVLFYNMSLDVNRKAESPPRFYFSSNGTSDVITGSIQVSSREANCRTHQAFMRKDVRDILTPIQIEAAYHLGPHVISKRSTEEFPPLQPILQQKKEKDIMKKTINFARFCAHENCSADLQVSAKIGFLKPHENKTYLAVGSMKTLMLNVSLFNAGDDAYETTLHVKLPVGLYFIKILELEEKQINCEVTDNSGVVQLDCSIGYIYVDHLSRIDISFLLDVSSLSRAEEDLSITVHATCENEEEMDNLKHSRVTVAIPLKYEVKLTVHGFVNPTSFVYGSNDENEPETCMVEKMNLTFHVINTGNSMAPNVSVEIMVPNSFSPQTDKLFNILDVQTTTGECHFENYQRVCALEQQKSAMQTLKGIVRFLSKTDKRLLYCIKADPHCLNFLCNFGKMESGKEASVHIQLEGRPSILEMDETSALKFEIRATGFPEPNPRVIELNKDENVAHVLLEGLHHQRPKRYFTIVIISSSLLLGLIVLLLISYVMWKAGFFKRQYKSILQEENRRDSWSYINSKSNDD
# Jurkat E6.1 cells, sequence (P05556 21-798): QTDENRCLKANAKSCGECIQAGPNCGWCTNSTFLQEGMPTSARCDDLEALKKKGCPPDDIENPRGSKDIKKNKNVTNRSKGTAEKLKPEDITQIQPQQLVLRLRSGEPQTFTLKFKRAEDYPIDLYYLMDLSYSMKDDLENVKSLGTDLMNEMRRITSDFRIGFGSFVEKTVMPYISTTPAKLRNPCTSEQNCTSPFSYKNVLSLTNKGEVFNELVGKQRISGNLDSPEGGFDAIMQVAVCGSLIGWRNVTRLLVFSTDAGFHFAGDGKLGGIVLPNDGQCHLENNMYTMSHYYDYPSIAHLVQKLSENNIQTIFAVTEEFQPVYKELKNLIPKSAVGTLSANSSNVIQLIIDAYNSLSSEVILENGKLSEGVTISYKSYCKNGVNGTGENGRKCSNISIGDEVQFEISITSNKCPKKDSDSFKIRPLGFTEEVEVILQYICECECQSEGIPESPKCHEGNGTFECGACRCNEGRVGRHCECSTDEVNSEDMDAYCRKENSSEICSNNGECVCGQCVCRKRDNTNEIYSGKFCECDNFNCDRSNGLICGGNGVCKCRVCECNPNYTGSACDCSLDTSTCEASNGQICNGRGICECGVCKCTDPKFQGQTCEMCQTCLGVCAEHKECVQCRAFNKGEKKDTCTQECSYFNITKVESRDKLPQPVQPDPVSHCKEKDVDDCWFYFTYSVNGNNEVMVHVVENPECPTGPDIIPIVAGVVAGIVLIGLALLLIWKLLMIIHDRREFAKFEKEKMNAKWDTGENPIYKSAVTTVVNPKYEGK
# Method in brief: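 Jurkat E6.1 cells (200,000 per well, in DMEM with 0.1% BSA and 1 mM MnCl2) allowed to adhere to rh VCAM-1 Fc-coated wells with serially diluted peptide for 30-45 min at 37° C. After washing, bound cells quantified by MTT absorbance at 570 nm, cell-free background subtracted, for dose response.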
# [3] = Simulated Intestinal Fluid (SIF) Stability Assay; format: in vitro ADME; conditions: 37° C., dimers, Table 7; for half-life / SIF (Porcine) (half-life, min): porcine pancreatin; for half-life at 22 μM: simulated intestinal fluid (SIF) with 1% porcine pancreatin, pH 6.5, porcine pancreatin
# Method in brief: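 Peptide at 22 μM final was incubated at 37° C in blank FaSSIF pH 6.5 with 1% porcine pancreatin. Timed samples were quenched in acetonitrile/methanol/formic acid with internal standard and analysed by LC-MS/MS. Half-lives came from first-order exponential fits of percent remaining.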
Compound,IC50 [1] [nM],IC50 [2] [µM],half-life ([3]; simulated gi fluid) [min],half-life at 22 μM ([3]; pig) [min],"SIF (Porcine) (half-life, min) [3]",half-life ([3]; pig) [min]
"CC(C)C[C@@H]1NC(=O)[C@H]([C@@H](C)O)NC(=O)[C@H](CC(=O)O)NC(=O)[C@H](CO)NC(=O)[C@H](CCCNC(=N)N)N(C)C(=O)c2ccccc2CSC(C)(C)[C@@H](C(=O)N[C@@H](Cc2cccc3ccccc23)C(=O)N[C@@H](CCC(=O)O)C(=O)N[C@H](CCCCNC(=O)COCC(=O)NCCCC[C@@H](NC(=O)[C@H](CCC(=O)O)NC(=O)[C@H](Cc2cccc3ccccc23)NC(=O)[C@H]2NC(=O)[C@H](CC(C)C)NC(=O)[C@H]([C@@H](C)O)NC(=O)[C@H](CC(=O)O)NC(=O)[C@H](CO)NC(=O)[C@H](CCCNC(=N)N)N(C)C(=O)c3ccccc3CSC2(C)C)C(N)=O)C(N)=O)NC1=O [compound 167] (I: [NMeR]SDTL[Pen][1Nal]E[dK]-NH2 / II: [NMeR]SDTL[Pen][1Nal]E[dK]-NH2; linker I:9-II:9 via Diglycolyl; linker I:N-I:6, II:N-II:6 via X1)",25 to 100,> 100,< 20,,,
"CC(C)C[C@@H]1NC(=O)[C@H]([C@@H](C)O)NC(=O)[C@H](CC(=O)O)NC(=O)[C@H](CO)NC(=O)[C@H](CCCNC(=N)N)N(C)C(=O)c2ccccc2CSC(C)(C)[C@@H](C(=O)N[C@@H](Cc2ccc(-c3ccccc3)cc2)C(=O)N[C@H](CCC(=O)O)C(=O)N[C@H](CCCCN)C(N)=O)NC1=O [compound 178] (HELM PEPTIDE1{[meR].S.D.T.L.[Pen].[O=C([C@H](Cc1ccc(-c2ccccc2)cc1)N[*:1])[*:2]].[dE].[dK].[am]}|CHEM1{[O=C(c1ccccc1C[*:2])[*:1]]}$PEPTIDE1,CHEM1,1:R1-1:R1|PEPTIDE1,CHEM1,6:R3-1:R2$$$V2.0)",100 to 1000,> 1,,> 180,">180 (266), min and >180 min",
"CC(C)C[C@@H]1NC(=O)[C@H]([C@@H](C)O)NC(=O)[C@H](CC(=O)O)NC(=O)[C@H](CO)NC(=O)[C@H](CCCNC(=N)N)N(C)C(=O)c2ccccc2CSC[C@@H](C(=O)N2Cc3ccccc3C[C@H]2C(=O)N[C@H](CCC(=O)O)C(=O)N[C@H](CCCCNC(=O)COCC(=O)NCCCC[C@@H](NC(=O)[C@@H](CCC(=O)O)NC(=O)[C@@H]2Cc3ccccc3CN2C(=O)[C@@H]2CSCc3ccccc3C(=O)N(C)[C@@H](CCCNC(=N)N)C(=O)N[C@@H](CO)C(=O)N[C@@H](CC(=O)O)C(=O)N[C@@H]([C@@H](C)O)C(=O)N[C@@H](CC(C)C)C(=O)N2)C(N)=O)C(N)=O)NC1=O [compound 184] (I: [NMeR]SDTLC[Tic][dE][dK]-NH2 / II: [NMeR]SDTLC[Tic][dE][dK]-NH2; linker I:9-II:9 via Diglycolyl; linker I:N-I:6, II:N-II:6 via X1)",100 to 1000,> 100,,> 180,>180 min,
"CC(C)C[C@@H]1NC(=O)[C@H]([C@@H](C)O)NC(=O)[C@H](CC(=O)O)NC(=O)[C@H](CO)NC(=O)[C@H](CCCNC(=N)N)N(C)C(=O)c2ccccc2CSC(C)(C)[C@@H](C(=O)N[C@@H](Cc2ccccc2)C(=O)N[C@H](CCC(=O)O)C(=O)N[C@H](CCCCNC(=O)COCC(=O)NCCCC[C@@H](NC(=O)[C@@H](CCC(=O)O)NC(=O)[C@H](Cc2ccccc2)NC(=O)[C@H]2NC(=O)[C@H](CC(C)C)NC(=O)[C@H]([C@@H](C)O)NC(=O)[C@H](CC(=O)O)NC(=O)[C@H](CO)NC(=O)[C@H](CCCNC(=N)N)N(C)C(=O)c3ccccc3CSC2(C)C)C(=O)O)C(=O)O)NC1=O [compound 204] (I: [NMeR]SDTL[Pen]F[dE][dK]-OH / II: [NMeR]SDTL[Pen]F[dE][dK]-OH; linker I:9-II:9 via Diglycolyl; linker I:N-I:6, II:N-II:6 via X1)",100 to 1000,> 100,,,,> 180
"CC(C)C[C@@H]1NC(=O)[C@H]([C@@H](C)O)NC(=O)[C@H](CC(=O)O)NC(=O)[C@H](CO)NC(=O)[C@H](CCCNC(=N)N)N(C)C(=O)c2ccccc2CSC[C@@H](C(=O)N2Cc3ccccc3C[C@H]2C(=O)N[C@H](CCC(=O)O)C(=O)N[C@H](CCCCNC(=O)COCC(=O)NCCCC[C@@H](NC(=O)[C@@H](CCC(=O)O)NC(=O)[C@@H]2Cc3ccccc3CN2C(=O)[C@@H]2CSCc3ccccc3C(=O)N(C)[C@@H](CCCNC(=N)N)C(=O)N[C@@H](CO)C(=O)N[C@@H](CC(=O)O)C(=O)N[C@@H]([C@@H](C)O)C(=O)N[C@@H](CC(C)C)C(=O)N2)C(=O)O)C(=O)O)NC1=O [compound 207] (I: [NMeR]SDTLC[Tic][dE][dK]-OH / II: [NMeR]SDTLC[Tic][dE][dK]-OH; linker I:9-II:9 via Diglycolyl; linker I:N-I:6, II:N-II:6 via X1)",100 to 1000,> 100,,,,> 180
"CC(C)C[C@@H]1NC(=O)[C@H]([C@@H](C)O)NC(=O)[C@H](CC(=O)O)NC(=O)[C@H](CO)NC(=O)[C@H](CCCNC(=N)N)N(C)C(=O)c2ccccc2CSC(C)(C)[C@@H](C(=O)N[C@@H](Cc2ccc(-c3ccccc3)cc2)C(=O)N[C@H](CCC(=O)O)C(=O)N[C@H](CCCCNC(=O)COCC(=O)NCCCC[C@@H](NC(=O)[C@@H](CCC(=O)O)NC(=O)[C@H](Cc2ccc(-c3ccccc3)cc2)NC(=O)[C@H]2NC(=O)[C@H](CC(C)C)NC(=O)[C@H]([C@@H](C)O)NC(=O)[C@H](CC(=O)O)NC(=O)[C@H](CO)NC(=O)[C@H](CCCNC(=N)N)N(C)C(=O)c3ccccc3CSC2(C)C)C(=O)O)C(=O)O)NC1=O [compound 208] (I: [NMeR]SDTL[Pen][Bip][dE][dK]-OH / II: [NMeR]SDTL[Pen][Bip][dE][dK]-OH; linker I:9-II:9 via Diglycolyl; linker I:N-I:6, II:N-II:6 via X1)",25 to 100,> 100,,,,> 180
"CC(C)C[C@@H]1NC(=O)[C@H]([C@@H](C)O)NC(=O)[C@H](CC(=O)O)NC(=O)[C@H](CO)NC(=O)[C@H](CCCNC(=N)N)N(C)C(=O)c2ccccc2CSC(C)(C)[C@@H](C(=O)N[C@@H](Cc2c[nH]c3ccccc23)C(=O)N[C@H](CCC(=O)O)C(=O)N[C@H](CCCCNC(=O)COCC(=O)NCCCC[C@@H](NC(=O)[C@@H](CCC(=O)O)NC(=O)[C@H](Cc2c[nH]c3ccccc23)NC(=O)[C@H]2NC(=O)[C@H](CC(C)C)NC(=O)[C@H]([C@@H](C)O)NC(=O)[C@H](CC(=O)O)NC(=O)[C@H](CO)NC(=O)[C@H](CCCNC(=N)N)N(C)C(=O)c3ccccc3CSC2(C)C)C(=O)O)C(=O)O)NC1=O [compound 209] (I: [NMeR]SDTL[Pen]W[dE][dK]-OH / II: [NMeR]SDTL[Pen]W[dE][dK]-OH; linker I:9-II:9 via Diglycolyl; linker I:N-I:6, II:N-II:6 via X1)",100 to 1000,> 100,,,,> 180
